Measured values published in publication PMC8348686, “The Pharmacological Profile of Second Generation Pyrovalerone Cathinones and Related Cathinone Derivative” (International Journal of Molecular Sciences, 2021).
Entries after “also recorded” stand apart in the source; their conditions may differ. Read-outs that look alike come from different tables or passages of the source.

How the values were obtained:
hNET [1] = target: T1, hNET (Homo sapiens, UniProt P23975); assay: Transporter-mediated monoamine efflux, [3H]-NE preloaded HEK293 cells; assay type: cell-based; parameters: expressed in transfected cells; host or cells: HEK293; conditions: 100 μM of drug, 45 min, HEK293 hNET preloaded with [3H]-NE; data for some pyrovalerones adapted from [13]
T1 sequence (P23975 whole entry): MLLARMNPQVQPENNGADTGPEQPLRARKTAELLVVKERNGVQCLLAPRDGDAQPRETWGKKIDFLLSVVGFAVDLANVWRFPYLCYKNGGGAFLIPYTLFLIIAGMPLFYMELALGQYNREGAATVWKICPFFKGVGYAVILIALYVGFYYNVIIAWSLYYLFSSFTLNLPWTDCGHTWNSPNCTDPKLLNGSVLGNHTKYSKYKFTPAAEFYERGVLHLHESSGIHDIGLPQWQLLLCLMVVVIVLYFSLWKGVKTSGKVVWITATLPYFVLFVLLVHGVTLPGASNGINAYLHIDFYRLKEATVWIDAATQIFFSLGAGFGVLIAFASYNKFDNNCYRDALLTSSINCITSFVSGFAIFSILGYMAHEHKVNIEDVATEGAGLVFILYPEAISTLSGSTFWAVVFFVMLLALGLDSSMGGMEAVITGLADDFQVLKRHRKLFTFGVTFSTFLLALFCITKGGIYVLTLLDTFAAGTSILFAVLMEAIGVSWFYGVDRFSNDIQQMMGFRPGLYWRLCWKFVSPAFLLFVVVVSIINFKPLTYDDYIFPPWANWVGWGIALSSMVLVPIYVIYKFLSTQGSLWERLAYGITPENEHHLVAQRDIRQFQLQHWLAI
Protocol: (§1) Monoamine efflux was assessed using human embryonic kidney 293 (HEK293) cells (Invitrogen, Zug, Switzerland) stably transfected with the human norepinephrine (hNET), dopamine (hDAT), or serotonin (hSERT) uptake transporters. In summary, the cells were seeded in poly-D-lysine coated XF24 cell culture microplates (Seahorse Biosciences, North Billerica, MA, USA) and cultured overnight at a concentration of 100,000 cells per well.
(§2) The cells were then exposed to Krebs–HEPES release buffer (85 μL/well) comprised of 130 mM NaCl, 1.3 mM KCl, 2.2 mM CaCl2, 1.2 mM MgSO4, 1.2 mM KH2PO4, 10 mM HEPES, and 10 mM D-glucose at a pH of 7.5, which also contained 10 nM radiolabelled neurotransmitter ([^3H]-5-HT for SERT, [^3H]-DA for DAT or [^3H]-NE for NET), 1 μM unlabelled neurotransmitter (DA or NE, only), 10 μM pargyline, and 0.2 mg/mL of ascorbic acid. This enabled the loading of the cells with their respective neurotransmitters via the uptake transporters. Afterwards, the release buffer was replaced by fresh buffer to wash the cells twice and the cells were then incubated for 15 min (DAT and SERT) or 45 min (NET) to 100 μM of test drugs dissolved in 1 mL of Krebs–HEPES buffer while shaking at 300 rpm and 37 °C. Termination of the release reaction occurred by removing the buffer from the cells and washing them with ice-cold buffer. Next, 50 μL of lysis buffer was added to the cells for 1 h in order to lyse the cells. Thereafter, 40 μL of the lysed cell mixture was transferred into scintillation vials (Perkin–Elmer, Schwerzenbach, Switzerland) containing 3 mL of scintillation fluid (Ultimagold, Perkin–Elmer, Schwerzenbach, Switzerland) and measured using liquid scintillation (as previously described in Section 2.2).
(§3) To quantify the “pseudo efflux” caused by the non-transporter mediated monoamine release and successive reuptake inhibition, each monoamine efflux experiment included a control where the cells were exposed to each respective transporter blocker (nisoxetine for NET, mazindol for DAT, and citalopram for SERT). The radioactivity inside the cells without any drug was set as 100%. The nonspecific release was subtracted from the total observed release at 100 μM of each examined drug to calculate the specific transporter mediated release. One single concentration of the test drugs was used (100 μM) and release exposure durations were set based on previously evaluated kinetics of the release-over-time curves.
(§4) An ANOVA followed by a Holm–Sidak test was conducted to compare each drug’s specific transporter-mediated efflux based on at least three independent experiments to the control condition.

hDAT = hDAT (Homo sapiens, UniProt Q01959); assay: Transporter-mediated monoamine efflux, [3H]-DA preloaded HEK293 cells; assay type: cell-based; parameters: expressed in transfected cells; host or cells: HEK293; conditions: 100 μM of drug, 15 min, HEK293 hDAT preloaded with [3H]-DA; data for some pyrovalerones adapted from [13]
Sequence of hDAT (Q01959 whole entry): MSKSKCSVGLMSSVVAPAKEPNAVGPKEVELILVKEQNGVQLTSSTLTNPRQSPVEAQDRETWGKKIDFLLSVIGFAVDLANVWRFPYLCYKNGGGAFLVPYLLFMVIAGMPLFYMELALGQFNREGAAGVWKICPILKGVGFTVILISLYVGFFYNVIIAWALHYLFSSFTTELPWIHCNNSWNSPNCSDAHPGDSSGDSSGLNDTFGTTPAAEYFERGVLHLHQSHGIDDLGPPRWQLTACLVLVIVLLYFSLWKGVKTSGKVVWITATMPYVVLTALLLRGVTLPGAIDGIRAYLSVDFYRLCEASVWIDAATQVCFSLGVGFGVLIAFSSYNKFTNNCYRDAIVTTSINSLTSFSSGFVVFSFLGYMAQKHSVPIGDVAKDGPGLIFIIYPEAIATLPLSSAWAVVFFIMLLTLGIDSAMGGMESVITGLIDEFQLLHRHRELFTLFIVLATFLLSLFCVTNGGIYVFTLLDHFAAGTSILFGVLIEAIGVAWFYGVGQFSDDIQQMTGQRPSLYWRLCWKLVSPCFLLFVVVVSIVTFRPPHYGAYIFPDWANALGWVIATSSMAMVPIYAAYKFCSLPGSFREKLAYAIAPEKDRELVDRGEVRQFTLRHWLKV
Protocol: as §1, §2, §3, §4

hSERT = hSERT (Homo sapiens, UniProt P31645); assay: Transporter-mediated monoamine efflux, [3H]-5-HT preloaded HEK293 cells; assay type: cell-based; parameters: expressed in transfected cells; host or cells: HEK293; conditions: 100 μM of drug, 15 min, HEK293 hSERT preloaded with [3H]-5-HT; data for some pyrovalerones adapted from [13]
Sequence of hSERT (P31645 whole entry): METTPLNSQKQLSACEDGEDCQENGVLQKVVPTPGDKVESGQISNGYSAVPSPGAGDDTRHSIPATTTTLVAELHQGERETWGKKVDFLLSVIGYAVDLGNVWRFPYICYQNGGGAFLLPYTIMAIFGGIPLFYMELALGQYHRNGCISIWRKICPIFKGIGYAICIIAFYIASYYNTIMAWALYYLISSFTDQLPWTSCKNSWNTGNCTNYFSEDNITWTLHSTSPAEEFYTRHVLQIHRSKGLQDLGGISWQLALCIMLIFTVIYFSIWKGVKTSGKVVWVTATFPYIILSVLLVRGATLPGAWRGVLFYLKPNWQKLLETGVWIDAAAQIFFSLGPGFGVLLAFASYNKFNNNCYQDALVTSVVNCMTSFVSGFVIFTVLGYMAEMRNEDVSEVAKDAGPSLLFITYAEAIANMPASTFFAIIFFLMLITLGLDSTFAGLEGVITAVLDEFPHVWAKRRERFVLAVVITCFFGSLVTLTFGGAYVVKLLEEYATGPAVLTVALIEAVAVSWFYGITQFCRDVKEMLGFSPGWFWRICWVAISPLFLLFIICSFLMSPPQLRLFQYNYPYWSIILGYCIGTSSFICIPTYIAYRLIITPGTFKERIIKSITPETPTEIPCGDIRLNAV
Protocol: as §1, §2, §3, §4

hNET [2] = target: T1, hNET; conditions: read-out: hNET Receptor Binding Ki ± SD, N-Methyl-[3H]-nisoxetine, cited from earlier work
dopaminergic D2 receptor = dopaminergic D2 receptor (Homo sapiens, UniProt P14416); conditions: read-out: D2 Receptor Binding Ki ± SD, [3H]-Spiperone, cited from earlier work
Sequence of dopaminergic D2 receptor (P14416 whole entry): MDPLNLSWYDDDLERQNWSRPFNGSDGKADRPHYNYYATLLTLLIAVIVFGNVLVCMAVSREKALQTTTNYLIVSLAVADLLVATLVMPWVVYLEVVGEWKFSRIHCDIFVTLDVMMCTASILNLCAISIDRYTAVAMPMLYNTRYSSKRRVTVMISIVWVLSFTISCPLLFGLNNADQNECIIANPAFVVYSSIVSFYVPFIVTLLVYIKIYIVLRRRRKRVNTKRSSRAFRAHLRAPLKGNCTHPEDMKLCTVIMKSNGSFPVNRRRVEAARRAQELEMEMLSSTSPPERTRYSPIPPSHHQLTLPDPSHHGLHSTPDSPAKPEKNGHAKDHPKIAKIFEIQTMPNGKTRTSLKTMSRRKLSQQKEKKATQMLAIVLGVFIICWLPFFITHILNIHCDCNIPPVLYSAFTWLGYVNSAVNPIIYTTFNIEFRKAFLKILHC

adrenergic α1A receptor = target: T2, adrenergic α1A receptor (Homo sapiens, UniProt P35348); conditions: [3H]-Prazosin, read-out: α1A Receptor Binding Ki ± SD, cited from earlier work
T2 sequence (P35348 1-466): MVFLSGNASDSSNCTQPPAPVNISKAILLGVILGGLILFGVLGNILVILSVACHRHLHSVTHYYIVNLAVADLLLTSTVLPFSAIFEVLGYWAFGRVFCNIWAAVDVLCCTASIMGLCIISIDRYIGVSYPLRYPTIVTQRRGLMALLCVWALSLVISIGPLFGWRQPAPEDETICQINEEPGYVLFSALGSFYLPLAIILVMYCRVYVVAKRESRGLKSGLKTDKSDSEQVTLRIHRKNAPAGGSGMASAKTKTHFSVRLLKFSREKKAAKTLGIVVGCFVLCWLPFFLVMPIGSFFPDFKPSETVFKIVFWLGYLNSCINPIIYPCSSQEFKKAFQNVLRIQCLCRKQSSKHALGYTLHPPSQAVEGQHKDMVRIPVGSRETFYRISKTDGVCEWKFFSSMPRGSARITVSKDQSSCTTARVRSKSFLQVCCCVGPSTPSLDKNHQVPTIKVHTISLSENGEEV

adrenergic α2A receptor = target: T3, adrenergic α2A receptor (Homo sapiens, UniProt P08913); conditions: [3H]-Rauwolscine, cited from earlier work; for Ki: read-out: α2A Receptor Binding Ki ± SD
T3 sequence (P08913 1-465): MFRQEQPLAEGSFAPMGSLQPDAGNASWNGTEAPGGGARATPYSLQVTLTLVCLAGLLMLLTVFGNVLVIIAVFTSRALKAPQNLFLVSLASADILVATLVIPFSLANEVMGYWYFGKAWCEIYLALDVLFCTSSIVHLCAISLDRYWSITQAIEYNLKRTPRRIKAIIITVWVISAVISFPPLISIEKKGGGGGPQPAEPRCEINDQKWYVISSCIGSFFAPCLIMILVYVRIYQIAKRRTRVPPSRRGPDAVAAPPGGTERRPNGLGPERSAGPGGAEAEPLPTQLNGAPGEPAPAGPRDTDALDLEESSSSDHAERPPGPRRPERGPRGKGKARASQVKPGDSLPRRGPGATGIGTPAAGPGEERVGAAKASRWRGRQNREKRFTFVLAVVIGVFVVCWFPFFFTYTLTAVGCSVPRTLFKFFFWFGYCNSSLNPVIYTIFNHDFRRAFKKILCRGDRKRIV

Rat TAAR1 = conditions: [3H]-RO5166017, cited from earlier work; for Ki: read-out: Rat TAAR1 Receptor Binding Ki ± SD
Mouse TAAR1 = conditions: [3H]-RO5166017, read-out: Mouse TAAR1 Receptor Binding Ki ± SD, cited from earlier work
[3] = ref Luethi, Kolaczynska et al. (2019)

SMILES: Cc1ccc(C(=O)C(C)N2CCCC2)cc1 (stereo not drawn) [4-MePPP, 4-methyl-α-pyrrolidinopropiophenone]
- Transporter-mediated monoamine efflux (NE) vs nisoxetine (hNET [1]): no monoamine efflux was observed
- Transporter-mediated monoamine efflux (DA) vs mazindol (hDAT): no monoamine efflux was observed
- Transporter-mediated monoamine efflux (5-HT) vs citalopram (hSERT): no monoamine efflux was observed

SMILES: CCC(C(=O)c1ccc(F)cc1)N1CCCC1 (stereo not drawn) [4F-PBP, 4-fluoro-α-pyrrolidinobutiophenone]
- Transporter-mediated monoamine efflux (NE) vs nisoxetine (hNET [1]): did not induce any monoamine efflux
- Transporter-mediated monoamine efflux (DA) vs mazindol (hDAT): did not induce any monoamine efflux
- Transporter-mediated monoamine efflux (5-HT) vs citalopram (hSERT): did not induce any monoamine efflux

SMILES: CNC(C)Cc1ccc2c(c1)OCO2 (stereo not shown) [MDMA, 3,4-methylenedioxymethamphetamine, reference compound]
- Ki (hNET [2]; [3]): > 8.7 µM
- Ki (dopaminergic D2 receptor; [3]): > 13 µM
- Ki (adrenergic α1A receptor; [3]): 6.9 ± 1.2 µM
- Ki (adrenergic α2A receptor; [3]): 4.6 ± 1.1 µM
- Ki (Rat TAAR1; [3]): 0.25 ± 0.01 µM
- Ki (Mouse TAAR1; [3]): 3.1 ± 0.7 µM
- Transporter-mediated monoamine efflux (NE) vs nisoxetine (hNET [1]): causes significant release at the transporters
- Transporter-mediated monoamine efflux (DA) vs mazindol (hDAT): causes significant release at the transporters
- Transporter-mediated monoamine efflux (5-HT) vs citalopram (hSERT): causes significant release at the transporters

SMILES: CCC(C(=O)c1ccc2c(c1)OCO2)N1CCCC1 (stereo not drawn) [MDPBP, 3,4-methylenedioxy-α-pyrrolidinobutiophenone]
- Ki (hNET [2]; ref Rickli et al. (2015)): 1.1 ± 0.1 µM
- Ki (dopaminergic D2 receptor; ref Rickli et al. (2015)): > 20 µM
- Ki (adrenergic α1A receptor; ref Rickli et al. (2015)): > 4.9 µM
- α2A Receptor Binding Ki ± SD (adrenergic α2A receptor; ref Rickli et al. (2015)): bound the receptor in the low micromolar range
- Ki (adrenergic α2A receptor; ref Rickli et al. (2015)): 9.4 ± 1.6 µM
- Ki (Rat TAAR1; ref Rickli et al. (2015)): > 20 µM
- Ki (Mouse TAAR1; ref Rickli et al. (2015)): > 20 µM

SMILES: CC(C(=O)c1ccc2c(c1)OCO2)N1CCCC1 (stereo not drawn) [MDPPP, 3,4-methylenedioxy-α-pyrrolidinopropiophenone]
- Ki (hNET [2]; ref Rickli et al. (2015)): 3.5 ± 1 µM
- Ki (dopaminergic D2 receptor; ref Rickli et al. (2015)): > 10 µM
- Ki (adrenergic α1A receptor; ref Rickli et al. (2015)): > 15 µM
- α2A Receptor Binding Ki ± SD (adrenergic α2A receptor; ref Rickli et al. (2015)): bound the receptor in the low micromolar range
- Ki (adrenergic α2A receptor; ref Rickli et al. (2015)): 14 ± 0.9 µM
- Rat TAAR1 Receptor Binding Ki ± SD (Rat TAAR1; ref Rickli et al. (2015)): bound the rat TAAR1
- Ki (Rat TAAR1; ref Rickli et al. (2015)): 16 ± 6.7 µM
- Ki (Mouse TAAR1; ref Rickli et al. (2015)): > 20 µM

SMILES: CCCC(C(=O)c1ccc2c(c1)OCO2)N1CCCC1 (stereo not shown) [MDPV, 3,4-methylenedioxypyrovalerone]
- Ki (hNET [2]; ref Simmler et al. (2013)): 0.08 ± 0.02 µM
- Ki (dopaminergic D2 receptor; ref Simmler et al. (2013)): > 30 µM
- Ki (adrenergic α1A receptor; ref Simmler et al. (2013)): > 6 µM
- Ki (adrenergic α2A receptor; ref Simmler et al. (2013)): > 20 µM
- Rat TAAR1 Receptor Binding Ki ± SD (Rat TAAR1; ref Simmler et al. (2013)): bound the rat TAAR1
- Ki (Rat TAAR1; ref Simmler et al. (2013)): 7.2 ± 1.1 µM
- Ki (Mouse TAAR1; ref Simmler et al. (2013)): > 10 µM

SMILES: CCCCC(C(=O)c1ccc(C)cc1)N1CCCC1 (stereo not drawn) [MPHP, 4-methyl-α-pyrrolidinohexanophenone]
- Transporter-mediated monoamine efflux (NE) vs nisoxetine (hNET [1]): no monoamine efflux was observed
- Transporter-mediated monoamine efflux (DA) vs mazindol (hDAT): no monoamine efflux was observed
- Transporter-mediated monoamine efflux (5-HT) vs citalopram (hSERT): no monoamine efflux was observed

SMILES: CCCCC(NCC)C(=O)c1ccccc1 (stereo not shown) [NEH, N-ethylamine-hexanophenone]
- Transporter-mediated monoamine efflux (NE) vs nisoxetine (hNET [1]): did not produce any monoamine efflux; also recorded: did not induce any monoamine efflux
- Transporter-mediated monoamine efflux (DA) vs mazindol (hDAT): did not produce any monoamine efflux; also recorded: did not induce any monoamine efflux
- Transporter-mediated monoamine efflux (5-HT) vs citalopram (hSERT): did not produce any monoamine efflux; also recorded: did not induce any monoamine efflux

SMILES: CCCC(C(=O)c1ccc(C)cc1)N1CCCC1 (stereo not shown) [Pyrovalerone, pyrovalerone]
- Ki (hNET [2]; ref Simmler et al. (2013)): 0.06 ± 0.01 µM
- Ki (dopaminergic D2 receptor; ref Simmler et al. (2013)): > 30 µM
- Ki (adrenergic α1A receptor; ref Simmler et al. (2013)): > 6 µM
- Ki (adrenergic α2A receptor; ref Simmler et al. (2013)): > 20 µM
- Ki (Rat TAAR1; ref Simmler et al. (2013)): > 12.5 µM
- Ki (Mouse TAAR1; ref Simmler et al. (2013)): > 10 µM

SMILES: CCCCC(C(=O)c1ccccc1)N1CCCC1 (stereo not drawn) [α-PHP, α-pyrrolidinohexanophenone]
- Transporter-mediated monoamine efflux (NE) vs nisoxetine (hNET [1]): did not induce any monoamine efflux
- Transporter-mediated monoamine efflux (DA) vs mazindol (hDAT): did not induce any monoamine efflux
- Transporter-mediated monoamine efflux (5-HT) vs citalopram (hSERT): did not induce any monoamine efflux

SMILES: CC(C(=O)c1ccccc1)N1CCCC1 (stereo not drawn) [α-PPP, α-pyrrolidinopropiophenone]
- Transporter-mediated monoamine efflux (NE) vs nisoxetine (hNET [1]): did not induce any monoamine efflux
- Transporter-mediated monoamine efflux (DA) vs mazindol (hDAT): did not induce any monoamine efflux
- Transporter-mediated monoamine efflux (5-HT) vs citalopram (hSERT): did not induce any monoamine efflux
